In US8680012B2, “4-phenyl-pyrane-3,5-diones,4-phenyl-thiopyrane-3,6-diones and cyclohexanetriones as novel herbicides” (Syngenta Crop Protection LLC, priority 2006, dated 2014):

Columns and labels:
Format in all cases: in vivo
[1] = tested on: Alopecurus myosuroides (ALOMY); test: Example B pre-emergence herbicidal activity, glasshouse pot test; conditions: 312 h, evaluated after 13 days, read-out: Pre-emergence activity ALOMY (100=total damage to plant; 0=no damage to plant); for pest or weed control at 1000 g/ha: rate 1000 g/ha; for pest or weed control at 250 g/ha: rate 250 g/ha
Procedure, shortened: (§1)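 Damage rating, 0–100, at 13 d after application. Spray solution: a.i. in acetone/water (50:50), 0.5% Tween 20. Applied 1 d after sowing or at 8 d growth; pots held at 24/16 °C, 14 h light, 65% humidity.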

[2] = tested on: Amaranthus retroflexus (AMARE); test: as above; conditions: 312 h, evaluated after 13 days, read-out: Pre-emergence activity AMARE (100=total damage to plant; 0=no damage to plant); for pest or weed control at 1000 g/ha: rate 1000 g/ha; for pest or weed control at 250 g/ha: rate 250 g/ha
Procedure, shortened: as §1

[3] = tested on: Avena fatua (AVEFA); test: as above; conditions: 312 h, evaluated after 13 days, read-out: Pre-emergence activity AVEFA (100=total damage to plant; 0=no damage to plant); for pest or weed control at 1000 g/ha: rate 1000 g/ha; for pest or weed control at 250 g/ha: rate 250 g/ha
Procedure, shortened: as §1

[4] = tested on: Echinochloa crus-galli (ECHCG); test: as above; conditions: 312 h, evaluated after 13 days, read-out: Pre-emergence activity ECHCG (100=total damage to plant; 0=no damage to plant); for pest or weed control at 1000 g/ha: rate 1000 g/ha; for pest or weed control at 250 g/ha: rate 250 g/ha
Procedure, shortened: as §1

[5] = tested on: Setaria faberi (SETFA); test: as above; conditions: 312 h, evaluated after 13 days, read-out: Pre-emergence activity SETFA (100=total damage to plant; 0=no damage to plant); for pest or weed control at 1000 g/ha: rate 1000 g/ha; for pest or weed control at 250 g/ha: rate 250 g/ha
Procedure, shortened: as §1

[6] = tested on: Solanum nigrum (SOLNI); test: as above; conditions: 312 h, evaluated after 13 days, read-out: Pre-emergence activity SOLNI (100=total damage to plant; 0=no damage to plant); for pest or weed control at 1000 g/ha: rate 1000 g/ha; for pest or weed control at 250 g/ha: rate 250 g/ha
Procedure, shortened: as §1

[7] = tested on: Alopecurus myosuroides (ALOMY); test: Example B post-emergence herbicidal activity, glasshouse pot test; conditions: 312 h, evaluated after 13 days, read-out: Post-emergence activity ALOMY (100=total damage to plant; 0=no damage to plant); for pest or weed control at 1000 g/ha: rate 1000 g/ha; for pest or weed control at 250 g/ha: rate 250 g/ha
Procedure, shortened: as §1

[8] = tested on: Amaranthus retroflexus (AMARE); test: as above; conditions: 312 h, evaluated after 13 days, read-out: Post-emergence activity AMARE (100=total damage to plant; 0=no damage to plant); for pest or weed control at 1000 g/ha: rate 1000 g/ha; for pest or weed control at 250 g/ha: rate 250 g/ha
Procedure, shortened: as §1

[9] = tested on: Avena fatua (AVEFA); test: as above; conditions: 312 h, evaluated after 13 days, read-out: Post-emergence activity AVEFA (100=total damage to plant; 0=no damage to plant); for pest or weed control at 1000 g/ha: rate 1000 g/ha; for pest or weed control at 250 g/ha: rate 250 g/ha
Procedure, shortened: as §1

[10] = tested on: Echinochloa crus-galli (ECHCG); test: as above; conditions: 312 h, evaluated after 13 days, read-out: Post-emergence activity ECHCG (100=total damage to plant; 0=no damage to plant); for pest or weed control at 1000 g/ha: rate 1000 g/ha; for pest or weed control at 250 g/ha: rate 250 g/ha
Procedure, shortened: as §1

[11] = tested on: Setaria faberi (SETFA); test: as above; conditions: 312 h, evaluated after 13 days, read-out: Post-emergence activity SETFA (100=total damage to plant; 0=no damage to plant); for pest or weed control at 1000 g/ha: rate 1000 g/ha; for pest or weed control at 250 g/ha: rate 250 g/ha
Procedure, shortened: as §1

[12] = tested on: Solanum nigrum (SOLNI); test: as above; conditions: 312 h, evaluated after 13 days, read-out: Post-emergence activity SOLNI (100=total damage to plant; 0=no damage to plant); for pest or weed control at 1000 g/ha: rate 1000 g/ha; for pest or weed control at 250 g/ha: rate 250 g/ha
Procedure, shortened: as §1

| Structure (SMILES) | pest or weed control at 1000 g/ha [1] | pest or weed control at 1000 g/ha [2] | pest or weed control at 1000 g/ha [3] | pest or weed control at 1000 g/ha [4] | pest or weed control at 1000 g/ha [5] | pest or weed control at 1000 g/ha [6] | pest or weed control at 1000 g/ha [7] | pest or weed control at 1000 g/ha [8] | pest or weed control at 1000 g/ha [9] | pest or weed control at 1000 g/ha [10] | pest or weed control at 1000 g/ha [11] | pest or weed control at 1000 g/ha [12] | further results |
| --- | --- | --- | --- | --- | --- | --- | --- | --- | --- | --- | --- | --- | --- |
| Cc1ccc(-c2ccc(C#N)cc2)cc1C1=C(O)C(C)(C)OC(C)(C)C1=O [Compound A-20] | 90% | 0% | 60% | 100% | 100% | 40% | 90% | 20% | 90% | 100% | 100% | 80% |  |
| CCc1ccc(-c2ccc(Cl)cc2)cc1C1=C(OC(=O)C(C)C)C(C)(C)OC(C)(C)C1=O [Compound D-9] | 20% | 0% | 0% | 70% | 90% | 0% | 30% | 0% | 0% | 100% | 90% | 0% |  |
| CCc1ccc(-c2ccc(Cl)c(C)c2)cc1C1=C(O)C(C)(C)C(=O)C(C)(C)C1=O [Compound B-2] | 0% | 90% | 20% | 70% | 0% | 30% | 0% | 70% | 0% | 80% | 20% | 40% |  |
| Cc1ccc(-c2cccc(C#N)c2)cc1C1=C(O)C(C)(C)OC(C)(C)C1=O [Compound A-22] | 40% | 30% | 20% | 90% | 40% | 60% | 30% | 0% | 0% | 80% | 20% | 90% |  |
| CCc1ccc(-c2ccc(Cl)c(C#N)c2)cc1C1=C(O)C(C)(C)C(=O)C(C)(C)C1=O [Compound B-27] |  |  |  |  |  |  |  |  |  |  |  |  | pest or weed control at 250 g/ha [1]: 0%; pest or weed control at 250 g/ha [2]: 0%; pest or weed control at 250 g/ha [3]: 0%; pest or weed control at 250 g/ha [4]: 0%; pest or weed control at 250 g/ha [5]: 0%; pest or weed control at 250 g/ha [6]: 0%; pest or weed control at 250 g/ha [7]: 70%; pest or weed control at 250 g/ha [8]: 0%; pest or weed control at 250 g/ha [9]: 0%; pest or weed control at 250 g/ha [10]: 80%; pest or weed control at 250 g/ha [11]: 60%; pest or weed control at 250 g/ha [12]: 0% |
| CCc1ccc(-c2ccc(Cl)cc2)cc1C1=C(OC(=O)OC(C)C)C(C)(C)OC(C)(C)C1=O [Compound D-17] | 20% | 0% | 0% | 80% | 90% | 0% | 60% | 10% | 20% | 100% | 100% | 0% |  |
| CCc1ccc(-c2ccc(Cl)cc2)cc1C1=C(O)C(C)(C)OC(C)C1=O (single isomer, unassigned) [Compound A-26] | 80% | 0% | 80% | 100% | 100% | 0% | 100% | 100% | 100% | 100% | 100% | 50% |  |
| CCc1ccc(-c2ccc(Cl)cc2)cc1C1=C(OC(=O)OCC(C)C)C(C)(C)OC(C)(C)C1=O [Compound D-14] | 50% | 0% | 20% | 60% | 90% | 0% | 20% | 0% | 10% | 100% | 100% | 0% |  |
| Cc1ccc(-c2ccc(Cl)cc2)cc1C1=C(O)C(C)(C)C(=O)C(C)(C)C1=O [Compound B-4] | 0% | 0% | 0% | 30% | 0% | 0% | 80% | 70% | 30% | 90% | 90% | 40% |  |
| CCc1ccc(-c2ccc(Cl)cc2Cl)cc1C1=C(O)C(C)(C)C(=O)C(C)(C)C1=O [Compound B-13] |  |  |  |  |  |  |  |  |  |  |  |  | pest or weed control at 250 g/ha [1]: 0%; pest or weed control at 250 g/ha [2]: 0%; pest or weed control at 250 g/ha [3]: 20%; pest or weed control at 250 g/ha [4]: 30%; pest or weed control at 250 g/ha [5]: 20%; pest or weed control at 250 g/ha [6]: 0%; pest or weed control at 250 g/ha [7]: 0%; pest or weed control at 250 g/ha [8]: 20%; pest or weed control at 250 g/ha [9]: 30%; pest or weed control at 250 g/ha [10]: 80%; pest or weed control at 250 g/ha [11]: 90%; pest or weed control at 250 g/ha [12]: 0% |
| CCc1ccc(-c2ccc(Cl)cc2)cc1C1=C(OC(=O)CCOC)C(C)(C)OC(C)(C)C1=O [Compound D-21] | 90% | 0% | 50% | 100% | 100% | 0% | 100% | 10% | 90% | 100% | 100% | 30% |  |
| CCc1ccc(-c2ccc(Cl)cc2F)cc1C1=C(O)C(C)(C)C(=O)C(C)(C)C1=O [Compound B-31] |  |  |  |  |  |  |  |  |  |  |  |  | pest or weed control at 250 g/ha [1]: 0%; pest or weed control at 250 g/ha [2]: 0%; pest or weed control at 250 g/ha [3]: 20%; pest or weed control at 250 g/ha [4]: 50%; pest or weed control at 250 g/ha [5]: 50%; pest or weed control at 250 g/ha [6]: 0%; pest or weed control at 250 g/ha [7]: 10%; pest or weed control at 250 g/ha [8]: 0%; pest or weed control at 250 g/ha [9]: 0%; pest or weed control at 250 g/ha [10]: 90%; pest or weed control at 250 g/ha [11]: 90%; pest or weed control at 250 g/ha [12]: 0% |
